Data published in ChEMBL document CHEMBL2150961, “Serum stability of selected decapeptide agonists of KISS1R using pseudopeptides” (Bioorg Med Chem Lett, 2012).
Starred links: 1 amine or outer side, 2 acyl side, 3 side chain; linkers in the order of their positions; H or OH if unused. Non-standard residues stand in square brackets, D forms with d. Residues, ends and D or L forms follow the SMILES beside them. X1 = O=C(CNC(=S)[C@H](Cc1ccccc1)N[*:1])[*:2]; 2Nal = N[C@@H](Cc1ccc2ccccc2c1)C(=O)O; Arg(Me) = CNC(=N)NCCC[C@H](N)C(=O)O; 3Pal = N[C@@H](Cc1cccnc1)C(=O)O; 4Pal = N[C@@H](Cc1ccncc1)C(=O)O; d4Pal = N[C@H](Cc1ccncc1)C(=O)O; azaGly = NNC(=O)O

Key:
[1] = molecular target: T1, KiSS-1 receptor (Homo sapiens, UniProt Q969F8); assay: Agonist activity at human KISS1R assessed as induction of intracellular calcium mobilization by fluorometric analysis; assay type: functional, cell-based
[2] = molecular target: T1, KiSS-1 receptor; assay: Binding affinity to human KISS1R
[3] = molecular target: KiSS-1 receptor (Rattus norvegicus, UniProt Q924U1); assay: Binding affinity to rat KISS1R
[4] = Metabolic stability of the compound in mouse serum assessed as compound residual ratio at 0.1 mM after 1 hr; assay type: ADME, cell-free; conditions: read-out: Stability
[5] = Metabolic stability of the compound in human serum assessed as compound residual ratio after 5 mins; assay type: ADME, cell-free; conditions: read-out: Stability
[6] = Metabolic stability of the compound in human serum assessed as compound residual ratio after 10 mins; assay type: ADME, cell-free; conditions: read-out: Stability
[7] = Metabolic stability of the compound in human serum assessed as compound residual ratio after 15 mins; assay type: ADME, cell-free; conditions: read-out: Stability
[8] = tested on: Serum; assay: Metabolic stability of the compound in human serum; assay type: ADME, cell-free
[9] = Half life in human serum; assay type: ADME, cell-free
[10] = Drug metabolism in mouse plasma at 0.1 mM after 1 min by HPLC-ESI-MS analysis; assay type: ADME, cell-free; conditions: read-out: Drug metabolism

T1 sequence (Q969F8 whole entry): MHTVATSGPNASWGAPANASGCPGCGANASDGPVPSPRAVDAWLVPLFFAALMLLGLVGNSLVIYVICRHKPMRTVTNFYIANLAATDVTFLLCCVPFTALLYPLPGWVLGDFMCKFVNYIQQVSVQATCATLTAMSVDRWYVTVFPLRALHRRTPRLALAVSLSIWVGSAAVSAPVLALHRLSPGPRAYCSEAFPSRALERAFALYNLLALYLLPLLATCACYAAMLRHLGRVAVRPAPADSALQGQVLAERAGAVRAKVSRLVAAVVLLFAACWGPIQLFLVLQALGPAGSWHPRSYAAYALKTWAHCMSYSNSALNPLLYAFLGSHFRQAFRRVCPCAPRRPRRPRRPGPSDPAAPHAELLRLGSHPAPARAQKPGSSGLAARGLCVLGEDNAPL
KiSS-1 receptor (Rattus norvegicus, UniProt Q924U1), sequence (Q924U1 whole entry): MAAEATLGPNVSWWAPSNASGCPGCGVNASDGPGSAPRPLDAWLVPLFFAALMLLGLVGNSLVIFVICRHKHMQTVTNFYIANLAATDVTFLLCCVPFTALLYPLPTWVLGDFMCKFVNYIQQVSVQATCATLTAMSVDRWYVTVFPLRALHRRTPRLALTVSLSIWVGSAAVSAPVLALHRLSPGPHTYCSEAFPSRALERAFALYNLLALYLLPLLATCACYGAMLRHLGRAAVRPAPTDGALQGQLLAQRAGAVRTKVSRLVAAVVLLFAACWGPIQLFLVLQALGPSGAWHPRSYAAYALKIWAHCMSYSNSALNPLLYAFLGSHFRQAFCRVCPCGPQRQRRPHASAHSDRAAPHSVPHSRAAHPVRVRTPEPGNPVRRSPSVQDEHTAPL

EC50 [1] [nM] | IC50 [2] [nM] | IC50 [3] [nM] | remaining at 1 h, 100 µM [4] [%] | remaining at 5 min [5] [%] | remaining at 10 min [6] [%] | remaining at 0.25 h [7] [%] | Stability [8] | half-life [9] [h] | metabolised at 1 min, 100 µM [10] [%] | Structure (SMILES)
 | 0.16 |  | 39.5 |  |  |  |  |  |  | CNC(=N)NCCC[C@H](NC(=O)[C@H](CC(C)C)NC(=O)NNC(=O)[C@H](Cc1ccccc1)NC(=O)[C@H](CO)NC(=O)[C@H](CC(N)=O)NC(=O)[C@H](Cc1c[nH]c2ccccc12)NC(=O)[C@H](CC(N)=O)NC(=O)[C@H](N)Cc1ccc(O)cc1)C(=O)N[C@@H](Cc1ccccc1)C(N)=O
0.041 | 2.8 | 3.3 | 35.3 |  |  |  |  |  |  | CNC(N)=NCCC[C@H](NC(=O)[C@H](CC(C)C)NC(=O)CNC(=S)[C@H](Cc1ccccc1)NC(=O)[C@H](CO)NC(=O)[C@H](CC(N)=O)NC(=O)[C@H](Cc1c[nH]c2ccccc12)NC(=O)[C@H](CC(N)=O)NC(=O)[C@H](N)Cc1ccc(O)cc1)C(=O)N[C@@H](Cc1ccccc1)C(N)=O (H-[dY]NWNS[X1]L[Arg(Me)]F-NH2)
0.59 | 0.28 | 0.28 |  |  |  |  |  |  |  | CNC(N)=NCCC[C@H](NC(=O)[C@H](CC(C)C)NC(=O)NNC(=O)[C@H](Cc1ccccc1)NC(=O)[C@H](CO)NC(=O)[C@H](CC(N)=O)NC(=O)[C@@H](Cc1ccncc1)NC(=O)[C@H](CC(N)=O)NC(=O)[C@H](N)Cc1ccc(O)cc1)C(=O)N[C@@H](Cc1ccccc1)C(N)=O (H-[dY]N[d4Pal]NSF[azaGly]L[Arg(Me)]F-NH2)
0.072 | 0.19 |  | 56.4 |  |  |  |  |  |  | CNC(N)=NCCC[C@H](NC(=O)[C@H](CC(C)C)NC(=O)NNC(=O)[C@H](Cc1ccccc1)NC(=O)[C@H](CO)NC(=O)[C@H](CC(N)=O)NC(=O)[C@@H](Cc1c[nH]c2ccccc12)NC(=O)[C@H](CC(N)=O)NC(=O)[C@H](N)Cc1ccc(O)cc1)C(=O)N[C@@H](Cc1ccccc1)C(N)=O
0.065 | 0.11 |  | 18.1 | 90.7 | 85.8 | 82.7 |  | 1.25 |  | CNC(N)=NCCC[C@H](NC(=O)[C@H](CC(C)C)NC(=O)CNC(=O)[C@H](Cc1ccccc1)NC(=O)[C@H](CO)NC(=O)[C@H](CC(N)=O)NC(=O)[C@H](Cc1c[nH]c2ccccc12)NC(=O)[C@H](CC(N)=O)NC(=O)[C@H](N)Cc1ccc(O)cc1)C(=O)N[C@@H](Cc1ccccc1)C(N)=O
0.11 | 0.3 | 0.28 | 30.7 |  |  |  |  |  |  | CNC(N)=NCCC[C@H](NC(=O)[C@H](CC(C)C)NC(=O)NNC(=O)[C@H](Cc1ccccc1)NC(=O)[C@H](CO)NC(=O)[C@H](CC(N)=O)NC(=O)[C@H](Cc1ccncc1)NC(=O)[C@H](CC(N)=O)NC(=O)[C@H](N)Cc1ccc(O)cc1)C(=O)N[C@@H](Cc1ccccc1)C(N)=O (H-[dY]N[4Pal]NSF[azaGly]L[Arg(Me)]F-NH2)
0.62 | 0.61 | 1.4 | 12.1 |  |  |  |  |  |  | CNC(N)=NCCC[C@H](NC(=O)[C@H](CC(C)C)NC(=O)CNC[C@H](Cc1ccccc1)NC(=O)[C@H](CO)NC(=O)[C@H](CC(N)=O)NC(=O)[C@H](Cc1c[nH]c2ccccc12)NC(=O)[C@H](CC(N)=O)NC(=O)[C@H](N)Cc1ccc(O)cc1)C(=O)N[C@@H](Cc1ccccc1)C(N)=O

The remaining lines, values behind:

Structure (SMILES) | EC50 [1] [nM] | IC50 [2] [nM] | IC50 [3] [nM] | remaining at 1 h, 100 µM [4] [%] | remaining at 5 min [5] [%] | remaining at 10 min [6] [%] | remaining at 0.25 h [7] [%] | Stability [8] | half-life [9] [h] | metabolised at 1 min, 100 µM [10] [%]
CNC(N)=NCCC[C@H](NC(=O)[C@H](CC(C)C)NC(=O)NNC(=O)[C@H](Cc1ccccc1)NC(=O)[C@H](CO)NC(=O)[C@H](CC(N)=O)NC(=O)[C@H](CO)NC(=O)[C@H](CC(N)=O)NC(=O)[C@H](N)Cc1ccc(O)cc1)C(=O)N[C@@H](Cc1ccccc1)C(N)=O (H-[dY]NSNSF[azaGly]L[Arg(Me)]F-NH2) | 0.73 | 0.49 | 0.43 | 50 | 86.5 | 85.3 | 86.4 | Stable |  | 
CNC(N)=NCCC[C@H](NC(=O)[C@H](CC(C)C)NC(=O)CC(=O)N[C@H](Cc1ccccc1)NC(=O)[C@H](CO)NC(=O)[C@H](CC(N)=O)NC(=O)[C@H](Cc1c[nH]c2ccccc12)NC(=O)[C@H](CC(N)=O)NC(=O)[C@H](N)Cc1ccc(O)cc1)C(=O)N[C@@H](Cc1ccccc1)C(N)=O | 0.95 | 0.51 | 2.9 | 46.8 |  |  |  |  |  | 
CNC(=N)NCCC[C@H](NC(=O)[C@H](CC(C)C)NC(=O)NNC(=O)[C@H](Cc1ccccc1)NC(=O)[C@H](CO)NC(=O)[C@H](CC(N)=O)NC(=O)[C@H](Cc1cccnc1)NC(=O)[C@H](CC(N)=O)NC(=O)[C@H](N)Cc1ccc(O)cc1)C(=O)N[C@@H](Cc1ccccc1)C(N)=O (H-[dY]N[3Pal]NSF[azaGly]L[Arg(Me)]F-NH2) | 0.24 | 0.7 | 0.89 | 50.6 |  |  |  |  |  | 
CNC(N)=NCCC[C@H](NC(=O)[C@H](CC(C)C)NC(=O)NNC(=O)[C@H](Cc1ccccc1)NC(=O)[C@H](CO)NC(=O)[C@H](CC(N)=O)NC(=O)[C@H](CC1CCCCC1)NC(=O)[C@H](CC(N)=O)NC(=O)[C@H](N)Cc1ccc(O)cc1)C(=O)N[C@@H](Cc1ccccc1)C(N)=O | 0.1 | 0.19 | 0.24 | 32 |  |  |  |  |  | 
CNC(=N)NCCC[C@H](NC(=O)[C@H](CC(C)C)NC(=O)NNC(=O)[C@H](Cc1ccccc1)NC(=O)[C@H](CO)NC(=O)[C@H](CC(N)=O)NC(=O)[C@H](Cc1ccc2ccccc2c1)NC(=O)[C@H](CC(N)=O)NC(=O)[C@H](N)Cc1ccc(O)cc1)C(=O)N[C@@H](Cc1ccccc1)C(N)=O (H-[dY]N[2Nal]NSF[azaGly]L[Arg(Me)]F-NH2) | 0.098 | 0.13 | 0.2 | 43.6 |  |  |  |  |  | 
CNC(N)=NCCC[C@H](NC(=O)[C@H](CC(C)C)NC(=O)NNC(=O)[C@H](Cc1ccccc1)NC(=O)[C@H](CO)NC(=O)[C@H](CC(N)=O)NC(=O)[C@@H](NC(=O)[C@H](CC(N)=O)NC(=O)[C@H](N)Cc1ccc(O)cc1)[C@@H](C)O)C(=O)N[C@@H](Cc1ccccc1)C(N)=O (H-[dY]NTNSF[azaGly]L[Arg(Me)]F-NH2) | 0.24 | 0.86 | 0.83 | 62.5 |  |  |  |  |  | 
CC[C@H](C)[C@H](NC(=O)[C@H](CC(N)=O)NC(=O)[C@H](N)Cc1ccc(O)cc1)C(=O)N[C@@H](CC(N)=O)C(=O)N[C@@H](CO)C(=O)N[C@@H](Cc1ccccc1)C(=O)NNC(=O)N[C@@H](CC(C)C)C(=O)N[C@@H](CCCNC(=N)NC)C(=O)N[C@@H](Cc1ccccc1)C(N)=O (H-[dY]NINSF[azaGly]L[Arg(Me)]F-NH2) | 0.13 | 0.43 | 0.46 |  |  |  |  |  |  | 
CC(C)C[C@H](NC(=O)CNC(=O)[C@H](Cc1ccccc1)NC(=O)[C@H](CO)NC(=O)[C@H](CC(N)=O)NC(=O)[C@H](Cc1c[nH]c2ccccc12)NC(=O)[C@H](CC(N)=O)NC(=O)[C@@H](N)Cc1ccc(O)cc1)C(=O)N[C@@H](CCCNC(=N)N)C(=O)N[C@@H](Cc1ccccc1)C(N)=O [KISSPEPTIN-10] | 0.049 | 0.082 |  |  | 0.9 | < 0.5 | < 0.5 |  | < 0.0167 | > 50
